Source: patent US20250195501A1, “CELL ENTRY-MODULATING AGENTS AND USES THEREFOR” (priority 2020, published 2025)
Read-outs that look alike come from different tables or passages of the source.

Assays:
[1] = system: Vero-E6 cells; details: for CC50: read-out: CC50 Mean ± SD, Vero-E6 cells, 24 h at 37° C., no virus, alamarBlue
[2] = target: T1, ACE2:RBD-mimic1 peptide interaction (Homo sapiens, UniProt Q9BYF1); experiment: Direct competition SPR: compound vs RBD-mimic1 peptide binding to human ACE2; details: compound and RBD-mimic1 peptide flowed at 1 μM over human ACE2
T1 construct: purchased R&D Systems and Assay Matrix (ACE2); Mimotopes (peptide)
T1 sequence (Q9BYF1 18-740 limits assumed): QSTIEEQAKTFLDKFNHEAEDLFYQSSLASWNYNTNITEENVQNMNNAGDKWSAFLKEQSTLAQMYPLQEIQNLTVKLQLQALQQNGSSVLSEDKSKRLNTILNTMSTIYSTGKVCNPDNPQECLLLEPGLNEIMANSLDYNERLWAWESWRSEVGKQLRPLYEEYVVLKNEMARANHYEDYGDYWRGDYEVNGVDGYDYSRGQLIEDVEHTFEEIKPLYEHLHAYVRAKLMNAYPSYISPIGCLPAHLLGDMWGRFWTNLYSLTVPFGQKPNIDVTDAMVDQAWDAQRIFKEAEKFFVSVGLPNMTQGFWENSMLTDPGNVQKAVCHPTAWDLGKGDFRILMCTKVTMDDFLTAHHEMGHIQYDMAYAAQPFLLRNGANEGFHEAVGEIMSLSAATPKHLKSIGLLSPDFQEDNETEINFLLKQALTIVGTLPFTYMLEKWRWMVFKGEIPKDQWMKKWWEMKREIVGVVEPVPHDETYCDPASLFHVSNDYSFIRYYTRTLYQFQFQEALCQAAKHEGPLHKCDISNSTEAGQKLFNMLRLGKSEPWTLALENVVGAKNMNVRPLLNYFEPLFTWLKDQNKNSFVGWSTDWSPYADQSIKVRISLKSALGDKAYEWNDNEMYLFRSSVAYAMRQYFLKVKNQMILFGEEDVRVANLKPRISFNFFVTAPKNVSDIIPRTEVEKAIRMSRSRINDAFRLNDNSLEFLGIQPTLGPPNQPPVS
Protocol: Peptide alone, compound alone and the competition. Percentage competition is calculated by the reduction in final peptide binding divided by the difference between the peptide and the compound alone.
All SPR sensorgrams and results plots were analyzed with Biacore S200 Evaluation Software (GE Healthcare Life Sciences).

[3] = system: SARS-CoV-2; experiment: microbe, parasite or virus in culture; format: cell-based; details: for IC50: read-out: IC50 Mean ± SD (SARS-CoV-2 infection); for SI (selectivity index, CC50/IC50): Vero-E6 cells

Ledipasvir
toxicity toward Vero-E6 cells in the infection assay [1]: toxicity was observed | 1:1 Competition between compound vs RBD-mimic1 peptide @ 1 μM (block: Yes/Partial) [2]: Partial

CC1(C)CCC(CN2CCN(c3ccc(C(=O)NS(=O)(=O)c4ccc(NCC5CCOCC5)c([N+](=O)[O-])c4)c(Oc4cnc5[nH]ccc5c4)c3)CC2)=C(c2ccc(Cl)cc2)C1 [Venetoclax]
toxicity toward Vero-E6 cells in the infection assay [1]: toxicity was observed | 1:1 Competition between compound vs RBD-mimic1 peptide @ 1 μM (block: Yes/Partial) [2]: Partial

COC[C@H]1C[C@@H](c2nc(-c3ccc4c(c3)COc3cc5c(ccc6nc([C@@H]7CC[C@H](C)N7C(=O)[C@@H](NC(=O)OC)C(C)C)[nH]c65)cc3-4)c[nH]2)N(C(=O)[C@H](NC(=O)OC)c2ccccc2)C1 [Velpatasvir]
toxicity toward Vero-E6 cells in the infection assay [1]: toxicity was observed | 1:1 Competition between compound vs RBD-mimic1 peptide @ 1 μM (block: Yes/Partial) [2]: Partial

Cc1ccc(C(=O)Nc2ccc(S(=O)(=O)O)c3cc(S(=O)(=O)O)cc(S(=O)(=O)O)c23)cc1NC(=O)c1cccc(NC(=O)Nc2cccc(C(=O)Nc3cc(C(=O)Nc4ccc(S(=O)(=O)O)c5cc(S(=O)(=O)O)cc(S(=O)(=O)O)c45)ccc3C)c2)c1 [Suramin]
IC50 ([3]; Severe acute respiratory syndrome coronavirus 2, Vero C1008, 24 h): 28.1 ± 1.2 µM | SI (selectivity index, CC50/IC50) [3]: >21.6 | CC50 [1]: > 1000 µM

Cc1cc(-c2ccc(/N=N/c3ccc4c(S(=O)(=O)[O-])cc(S(=O)(=O)[O-])c(N)c4c3O)c(C)c2)ccc1/N=N/c1ccc2c(S(=O)(=O)[O-])cc(S(=O)(=O)[O-])c(N)c2c1O.[Na+].[Na+].[Na+].[Na+] [Evans Blue]
SI (selectivity index, CC50/IC50) [3]: >35.6 | IC50 [3]: 28.1 ± 1.2 µM | toxicity toward Vero-E6 cells in the infection assay [1]: low toxicity | CC50 [1]: > 1000 µM | 1:1 Competition between compound vs RBD-mimic1 peptide @ 1 μM (block: Yes/Partial) [2]: completely block and Yes | 1:1 Competition between compound vs RBD-mimic1 peptide @ 1 μM (percentage competition) [2]: ~100%

CCc1c2c(nc3ccc(OC(=O)N4CCC(N5CCCCC5)CC4)cc13)-c1cc3c(c(=O)n1C2)COC(=O)[C@]3(O)CC [Irinotecan]
toxicity toward Vero-E6 cells in the infection assay [1]: toxicity was observed | 1:1 Competition between compound vs RBD-mimic1 peptide @ 1 μM (block: Yes/Partial) [2]: Yes | 1:1 Competition between compound vs RBD-mimic1 peptide @ 1 μM (percentage competition) [2]: (100% ± 6.36)
